Data taken from PubChem BioAssay (NCI).
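GI50: concentration for 50% inhibition of growth. TGI: concentration producing complete growth inhibition.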

What was measured:
Test in all cases: NCI tumour cell line growth inhibition, 384-well format; in the data active = GI50 below about 0.43 µM; inactive = the rest
SW-620 colon = test system: SW-620 colon
SF-268 CNS = test system: SF-268 CNS
ACHN renal = test system: ACHN renal
PC-3 prostate = test system: PC-3 prostate
HL-60(TB) leukemia = test system: HL-60(TB) leukemia
SK-OV-3 ovarian = test system: SK-OV-3 ovarian
SK-MEL-28 melanoma = test system: SK-MEL-28 melanoma
RXF 393 renal = test system: RXF 393 renal
HCT-116 colon = test system: HCT-116 colon
COLO 205 colon = test system: COLO 205 colon
NCI-H460 NSCLC = test system: NCI-H460 NSCLC
T-47D breast = test system: T-47D breast
DU-145 prostate = test system: DU-145 prostate
TK-10 renal = test system: TK-10 renal
SF-539 CNS = test system: SF-539 CNS
HT29 colon = test system: HT29 colon
A549 NSCLC = test system: A549 NSCLC
LOX IMVI melanoma = test system: LOX IMVI melanoma
A498 renal = test system: A498 renal
OVCAR-4 ovarian = test system: OVCAR-4 ovarian
HOP-62 NSCLC = test system: HOP-62 NSCLC
OVCAR-5 ovarian = test system: OVCAR-5 ovarian
UO-31 renal = test system: UO-31 renal
HOP-92 NSCLC = test system: HOP-92 NSCLC
NCI-H23 lung = test system: NCI-H23 lung
SK-MEL-2 melanoma = test system: SK-MEL-2 melanoma
SK-MEL-5 melanoma = test system: SK-MEL-5 melanoma
OVCAR-8 ovarian = test system: OVCAR-8 ovarian
MALME-3M melanoma = test system: MALME-3M melanoma
SN12C renal = test system: SN12C renal
BT-549 breast = test system: BT-549 breast
CAKI-1 renal = test system: CAKI-1 renal
HCC-2998 colon = test system: HCC-2998 colon
NCI/ADR-RES ovarian = test system: NCI/ADR-RES ovarian
UACC-62 melanoma = test system: UACC-62 melanoma
MDA-MB-231 breast = test system: MDA-MB-231 breast
IGROV1 ovarian = test system: IGROV1 ovarian
MDA-MB-435 melanoma = test system: MDA-MB-435 melanoma
SR leukemia = test system: SR leukemia
U251 glioblastoma = test system: U251 glioblastoma
HCT-15 colon = test system: HCT-15 colon
M14 melanoma = test system: M14 melanoma
CCRF-CEM leukemia = test system: CCRF-CEM leukemia
786-0 renal = test system: 786-0 renal
MDA-MB-468 breast = test system: MDA-MB-468 breast
NCI-H226 lung = test system: NCI-H226 lung
OVCAR-3 ovarian = test system: OVCAR-3 ovarian
RPMI-8226 leukemia = test system: RPMI-8226 leukemia
KM12 colon = test system: KM12 colon
K-562 leukemia = test system: K-562 leukemia
SNB-19 CNS = test system: SNB-19 CNS
NCI-H322M lung = test system: NCI-H322M lung
NCI-H522 lung = test system: NCI-H522 lung
SF-295 CNS = test system: SF-295 CNS
UACC-257 melanoma = test system: UACC-257 melanoma
MCF7 breast = test system: MCF7 breast
MOLT-4 leukemia = test system: MOLT-4 leukemia

COCCOCCOCCOCCOC(=O)OC[n+]1ccc(NC(=NCCCCCCOc2ccc(Cl)cc2)NC#N)cc1
active: GI50 (SW-620 colon) < 10 nM | GI50 (SF-268 CNS) < 10 nM | GI50 (ACHN renal) < 10 nM | GI50 (PC-3 prostate) < 10 nM | GI50 (HL-60(TB) leukemia) < 10 nM | GI50 (SK-OV-3 ovarian) < 10 nM | GI50 (SK-MEL-28 melanoma) < 10 nM | GI50 (RXF 393 renal) < 10 nM | GI50 (HCT-116 colon) < 10 nM | GI50 (COLO 205 colon) < 10 nM | GI50 (NCI-H460 NSCLC) < 10 nM | GI50 (T-47D breast) < 10 nM | GI50 (DU-145 prostate) < 10 nM | GI50 (TK-10 renal) < 10 nM | GI50 (SF-539 CNS) < 10 nM | GI50 (HT29 colon) < 10 nM | GI50 (A549 NSCLC) < 10 nM | GI50 (LOX IMVI melanoma) < 10 nM | GI50 (A498 renal) 25.3 nM | GI50 (OVCAR-4 ovarian) < 10 nM | GI50 (HOP-62 NSCLC) < 10 nM | GI50 (OVCAR-5 ovarian) < 10 nM | GI50 (UO-31 renal) < 10 nM | GI50 (HOP-92 NSCLC) 21.6 nM | GI50 (NCI-H23 lung) < 10 nM | GI50 (SK-MEL-2 melanoma) < 10 nM | GI50 (SK-MEL-5 melanoma) < 10 nM | GI50 (OVCAR-8 ovarian) < 10 nM | GI50 (MALME-3M melanoma) 25.3 nM | GI50 (SN12C renal) < 10 nM | GI50 (BT-549 breast) < 10 nM | GI50 (CAKI-1 renal) < 10 nM | GI50 (HCC-2998 colon) < 10 nM | GI50 (NCI/ADR-RES ovarian) < 10 nM | GI50 (UACC-62 melanoma) < 10 nM | GI50 (MDA-MB-231 breast) 15.2 nM | GI50 (IGROV1 ovarian) < 10 nM | GI50 (MDA-MB-435 melanoma) < 10 nM | GI50 (SR leukemia) 18.8 nM | GI50 (U251 glioblastoma) < 10 nM | GI50 (HCT-15 colon) < 10 nM | GI50 (M14 melanoma) < 10 nM | GI50 (CCRF-CEM leukemia) < 10 nM | GI50 ([…]-0 renal) < 10 nM | GI50 (MDA-MB-468 breast) < 10 nM | GI50 (NCI-H226 lung) 77.9 nM | GI50 (OVCAR-3 ovarian) < 10 nM | GI50 (RPMI-8226 leukemia) < 10 nM | GI50 (KM12 colon) < 10 nM | GI50 (K-562 leukemia) < 10 nM | GI50 (SNB-19 CNS) < 10 nM | GI50 (NCI-H322M lung) < 10 nM | GI50 (NCI-H522 lung) < 10 nM | GI50 (SF-295 CNS) < 10 nM | GI50 (UACC-257 melanoma) < 10 nM | GI50 (MCF7 breast) < 10 nM | GI50 (MOLT-4 leukemia) < 10 nM
15.8 nM: TGI (UACC-257 melanoma)
18.9 nM: TGI (M14 melanoma)
30.1 nM: TGI (MDA-MB-231 breast)
< 10 nM: TGI (SW-620 colon) | TGI (SF-268 CNS) | TGI (ACHN renal) | TGI (PC-3 prostate) | TGI (HL-60(TB) leukemia) | TGI (SK-OV-3 ovarian) | TGI (SK-MEL-28 melanoma) | TGI (RXF 393 renal) | TGI (HCT-116 colon) | TGI (COLO 205 colon) | TGI (NCI-H460 NSCLC) | TGI (T-47D breast) | TGI (TK-10 renal) | TGI (SF-539 CNS) | TGI (HT29 colon) | TGI (LOX IMVI melanoma) | TGI (OVCAR-4 ovarian) | TGI (HOP-62 NSCLC) | TGI (OVCAR-5 ovarian) | TGI (UO-31 renal) | TGI (NCI-H23 lung) | TGI (SK-MEL-2 melanoma) | TGI (SK-MEL-5 melanoma) | TGI (OVCAR-8 ovarian) | TGI (SN12C renal) | TGI (BT-549 breast) | TGI (CAKI-1 renal) | TGI (HCC-2998 colon) | TGI (NCI/ADR-RES ovarian) | TGI (UACC-62 melanoma) | TGI (IGROV1 ovarian) | TGI (MDA-MB-435 melanoma) | TGI (U251 glioblastoma) | TGI (HCT-15 colon) | TGI (CCRF-CEM leukemia) | TGI (786-0 renal) | TGI (MDA-MB-468 breast) | TGI (OVCAR-3 ovarian) | TGI (RPMI-8226 leukemia) | TGI (KM12 colon) | TGI (K-562 leukemia) | TGI (SNB-19 CNS) | TGI (NCI-H322M lung) | TGI (NCI-H522 lung) | TGI (SF-295 CNS) | TGI (MCF7 breast) | TGI (MOLT-4 leukemia)
2960 nM: TGI (NCI-H226 lung)
46.4 nM: TGI (MALME-3M melanoma)
18.8 nM: TGI (DU-145 prostate)
19.4 nM: TGI (A549 NSCLC)
58.6 nM: TGI (A498 renal)
33.3 nM: TGI (SR leukemia)
41.5 nM: TGI (HOP-92 NSCLC)
